Assay results as given in US20070225255A1, “Use of Mitochondrially Targeted Antioxidant in the Treatment of Liver Diseases and Epithelial Cancers” (priority 2004, published 2007).
pEC50: −log10 of the molar value.

Experiments:
[1] = test system: hepatoma cell lines; test: DDC intoxication of hepatoma cell lines; type: cell-based; settings: hepatoma cell lines incubated for up to 72 hours in DMEM and 10% FCS
Procedure: The hepatoma cell lines incubated for up to 72 hours in culture medium (DMEM and 10% FCS, Gibco) supplemented with DDC (EC50=50 μg/ml of medium) or with up to 100 μM BSO are another suitable in vitro model mimicking observations made in patients suffering from the diseases according to the invention.

[2] = test system: human epithelial cell cancer xenografts; test: Nude mice tumor xenografts; type: in vivo, mouse
Procedure: Tumor cell lines or primary tumors that are xenografted subcutaneously according to standard methods (Li K. et al., 2003, Cancer Res., 63(13): 3593-3597) include colon adenocarcinomas, invasive ductal carcinomas of the breast, small and non-small cell lung carcinoma, prostate tumors, pancreatic tumors and stomach tumors.
Tumor-derived cell lines (grown in DMEM/10% FBS) are harvested in log-phase growth, washed twice with PBS, resuspended in 1 ml PBS (2.5×10^7 cells/ml), and injected subcutaneously into the right flank of a nude mouse (Hsd: athymic nu/nu, Harlan Winkelmann; aged between 5 and 6 weeks) at 5×10^6 cells/mouse (0.2 ml). Tumor growth is monitored every other day for the indicated periods (depending on the cell type). Tumor size is determined by the product of two perpendicular diameters and the height above the skin surface.

[3] = fed in drinking water for 3 to 7 days, 500 μM or 1 mM (MitoVit E 500 μM); cited from earlier work
[4] = test system: human cell lines intoxicated with DDC or BSO; test: ROS formation in cell lines intoxicated with DDC or BSO; type: cell-based; settings: simultaneous treatment at concentrations corresponding to EC50
From the text: Another simple set of experiments employing hepatoma cell lines (e.g. HepG2 or Hep3B), the SNU-398 hepatocellular carcinoma-derived cell line (ATCC No. CRL-2233, LGC Promochem, Germany), the HUH-7 human carcinoma-derived cell line (Japanese collection of Research Biosources JCRB 0403) or the Tib-73 mouse embryonic liver cell line (ATCC TIB 73=BNL CL2 derived from BAL/c mouse, MD, USA) allows measurement of ROS production in these cells upon DDC intoxication.
To determine ROS production in for example hepatoma cell lines a standard experimental protocol according to Example 8 is applied. Tested hepatoma cells are grown in 96-well plates in culture medium (DMEM supplemented with 10% FCS, Gibco) to 80% confluency, subsequently washed with HBSS and incubated in the dark with DHE (10-50 μM) for 10 minutes at 37° C. Cells are then washed twice with Hank's balanced salt solution (HBSS, Gibco) to remove excess dye. Fluorescence is monitored in a fluorescence microscope (Olympus, Hamburg, Germany).
Alternatively, the generation of ROS is measured by using the fluoroprobe 5-(and-6)-chloromethyl-2′,7′-dichlorodihydrofluorescein diacetate acetyl ester (CM-H2DCFDA, Molecular Probes, Goettingen, Germany) which is converted to fluorescent dichlorofluorescien (DCF; Djordjevic T. et al., 2004, Antioxidants & Redox Signaling, 6: 713-720). To determine DCF fluorescence in a microplate reader (Tecan, Crailsheim, Germany), cells (e.g. HepG2, Hep3B or SNU-398) are grown in 96-well plates to 80% confluency. […] After several washes with HBSS to remove excess dye, fluorescence is monitored by using 480 nm excitation and 540 nm emission wavelength. DCF fluorescence is standardized to the number of viable cells using the Alamar Blue test according to the manufacturer's instructions (Biosource, Nivelles, Belgium). […] The absorbance is then measured at the wavelength of 580 μm.

[5] = test system: DDC- or GF intoxicated mice; test: Toxic memory effect upon reintoxication with DDC or GF after recovery; type: in vivo, mouse; settings: 10 weeks DDC or GF, 4 weeks recovery, reexposure 24 to 72 hours with simultaneous treatment
From the text: Mouse livers respond to DDC- or GF intoxication first with ballooning of hepatocytes and formation of a denser keratin IF network. After around 6 weeks of intoxication, ballooned hepatocytes show a reduced density of the keratin IF and early MBs can be observed as fine granules associated with the keratin IF network. Continuation of intoxication leads to the appearance of large MBs typically located in the perinuclear cytoplasmic region. […] Upon cessation of intoxication, MBs disappear within several weeks. At 4 weeks of recovery from intoxication, there are groups of hepatocytes devoid of cytoplasmic keratin filaments but still containing small remnants of MBs at the cell periphery in association with desmosomes. If such mice are reexposed to DDC or GF numerous MBs reappear within 24 to 72 hours (Stumptner C. et al., 2001, J. Hepatol., 34: 665-675). This enhanced formation of MBs upon reintoxication was interpreted—in analogy to allergic reactions—as a toxic memory effect.
In another set of experiments, 10 week-intoxication of mice with DDC or GF is followed by 4 weeks of recovery.

[6] = fed to mice on a long term basis; cited from earlier work
[7] = intraperitoneal or i.v. (tail vein) injections, mice; cited from earlier work
[8] = according to Jauslin M. L. et al., 2003, FASEB J.; cited from earlier work
[9] = test system: mitochondria within isolated cells; settings: in vitro; cited from earlier work
[10] = test system: patients having liver cirrhosis and a history of hepatitis C virus (HCV) infection; settings: patients with liver cirrhosis and HCV history (VitE group); cited from earlier work
[11] = test system: choline deficient diet fed rats; settings: cited from earlier work

Q: For CCOC(=O)C1=C(C)NC(C)=C(C(=O)OCC)C1C [DDC], which EC50 [1] is on record?
A: 50 μg/ml of medium

Q: With COc1c(O)c(C)c(CCCCCCCCCC[P+](c2ccccc2)(c2ccccc2)c2ccccc2)c(O)c1OC.CS(=O)(=O)[O-] [MitoS] as the compound, how does the growth of tumors [2] read?
A: reduced growth of tumors

Q: And the “necrosis of the tumors” value [2]?
A: increased necrosis of the tumors

Q: What about the “vascularization of the tumor xenografts” value [2] of the same compound?
A: decreased vascularization

Q: What about the “gross signs of toxicity” value [3] of the same compound?
A: without any gross signs of toxicity

Q: What about the ROS formation [4] of the same compound?
A: significant reduction in ROS formation

Q: What about the “toxic memory effect (reappearance of MBs)” value [5] of the same compound?
A: reduced or abolished

Q: With Cc1c(C)c2c(c(C)c1O)CCC(C)(CC[P+](c1ccccc1)(c1ccccc1)c1ccccc1)O2 (stereo not drawn) [MitoVit E, [2-(3,4-dihydro-6-hydroxy-2,5,7,8-tetramethyl-2H-1-benzopyran-2-yl)ethyl]-triphenylphosphonium bromide] as the compound, how does the “concentrations within the brain, heart, liver, and muscle” value [6] read?
A: potentially therapeutically effective concentrations

Q: And the safety of feeding [6]?
A: fed safely

Q: And the maximum tolerated dose [7]?
A: 6 mg/kg/day

Q: And the “gross signs of toxicity” value [3]?
A: without any gross signs of toxicity

Q: And the ROS formation [4]?
A: significant reduction in ROS formation

Q: And the “toxic memory effect (reappearance of MBs)” value [5]?
A: reduced or abolished

Q: And the pEC50 [8]?
A: 6.38

Q: And the accumulation by mitochondria [9]?
A: rapidly and selectively accumulated by mitochondria

Q: For C[P+](c1ccccc1)(c1ccccc1)c1ccccc1 [TPMP, reference compound], which safety of feeding [6] is on record?
A: fed safely

Q: Which “liver function, hepatocarcinogenesis, cumulative survival” value [10] does the source give for Cc1c(C)c2c(c(C)c1O)CC[C@@](C)(CCC[C@H](C)CCC[C@H](C)CCCC(C)C)O2 [alpha-tocopherol] here?
A: neither improvement of liver function, suppression of hepatocarcinogenesis, nor improvement of cumulative survival

Q: Which “development of fatty liver and oxidative stress” value [11] does the source give for vitamin E here?
A: neither prevented the development of fatty liver nor reduced the oxidative stress
